The values below come from the SangsterLogP compilation.

Each structure is given as a SMILES string.

A short description of data set [1]: method code SF-AS, from DOI: 10.1021/jf00085a044.

In the case of `C=CCn1nnc(Oc2ccc(NC(=O)N(C)C)cc2)n1`, the logP was determined as 1.65.
Consider `CN(C)C(=O)Nc1ccc(Oc2nnnn2C(C)(C)C)cc1`, for which the logP was 1.65.
In data set [1], `CN(C)C(=O)Nc1ccc(Oc2nnn(C3CCCCC3)n2)cc1` returned a logP of 2.67.
For `CCOC(=O)Cn1nnnc1Oc1ccc(NC(=O)N(C)C)cc1`, the logP in data set [1] turned out to be 0.7.
In turn, `CN(C)C(=O)Nc1ccc(Oc2nnn(Cc3ccccc3)n2)cc1` yielded a logP of 2.25.
On to `CN(C)C(=O)Nc1ccc(Oc2nnnn2Cc2ccccc2)cc1`, for which the logP was determined as 1.7.
In the case of `C#CCn1nnnc1Oc1ccc(NC(=O)N(C)C)cc1`, the logP came out at 1.
Regarding `C#CCn1nnc(Oc2ccc(NC(=O)N(C)C)cc2)n1`, the logP is 1.65.
Turning to `CN(C)C(=O)Nc1ccc(Oc2nnnn2C2CCCCC2)cc1`, the logP in data set [1] turned out to be 2.18.
The same measure, in the same setting: in the case of `CN(C)C(=O)Nc1ccc(Oc2nnn(C(C)(C)C)n2)cc1` it was 2.08.
With `CCn1nnc(Oc2ccc(NC(=O)N(C)C)cc2Cl)n1`, the logP was 1.7.
Turning to `CCCCCCCCn1nnnc1Oc1ccc(NC(=O)N(C)C)cc1`, in data set [1], the logP came to 3.96.
In turn, `CCCCCCCCn1nnc(Oc2ccc(NC(=O)N(C)C)cc2)n1` gave a logP of 4.4.
Take `CN(C)C(=O)Nc1ccc(Oc2nnn(CCC#N)n2)cc1`: the logP in data set [1] was 0.28.
The compound `CC(C)n1nnc(Oc2ccc(NC(=O)N(C)C)cc2)n1` displayed a logP of 1.45.
In data set [1], `CCn1nnc(Oc2ccc(NC(=O)N(C)C)cc2)n1` showed a logP of 1.1.
As to `CN(C)C(=O)Nc1ccc(Oc2nnn(C)n2)cc1`, the logP in data set [1] was found to be 0.63.
In the case of `CCn1nnnc1Oc1ccc(NC(=O)N(C)C)cc1Cl`, in data set [1], the logP turned out to be 1.5.
`C=CCn1nnnc1Oc1ccc(NC(=O)N(C)C)cc1` displayed a logP of 1.
`CN(C)C(=O)Nc1ccc(Oc2nnnn2C(C)(C)C)c(Cl)c1` registered a logP of 2.25.

The term logP denotes the decadic logarithm of the partition coefficient of the neutral form, usually between octanol and water. The low end stands for a more hydrophilic compound, the high end for a more lipophilic compound.
